Columns and labels:
Ramos cells = test: Cytotoxicity in Ramos cells; format: cell-based; settings: Homo sapiens, read-out: Ramos cell EC50
Description: (§1) Compounds in Example 4 above were tested for activity against F1F0-ATPase by measuring ATP synthesis. In addition, the compounds were assessed for cytotoxicity in Ramos cells. Inhibition of ATP synthesis by the F1F0-ATPase and cytotoxicity in Ramos cells were measured according to the procedures described in K. M. Johnson et al. Chemistry & Biology 2005, 12, 485-496.

F1F0-ATPase = target: T1, F1F0-ATPase (Bos taurus, UniProt P13621); test: Inhibition of ATP synthesis by the F1F0-ATPase; format: biochemical
T1 construct: from tissue
Description: as §1

| SMILES | EC50 (Ramos cells) [µM] | IC50 (F1F0-ATPase) [µM] |
| --- | --- | --- |
| CC(C)(C)c1ccccc1N/C(=N\C(=O)c1ccc(C(F)(F)F)cc1)N[C@H]1CC[C@H](O)CC1 [Compound 1] | < 10 | < 10 |
| O=C(/N=C(\Nc1cccc(C(F)(F)F)c1)N[C@H]1CC[C@H](O)CC1)c1ccc(C(F)(F)F)cc1 [Compound 2] | < 10 | < 10 |
| CS(=O)(=O)N[C@H]1CC[C@H](N/C(=N\C(=O)c2ccc(F)c(F)c2)Nc2cccc(C(F)(F)F)c2)CC1 [Compound 3] | < 10 | < 10 |
| O=C(/N=C(/Nc1cccc(C(F)(F)F)c1)N[C@H]1CC[C@H](O)CC1)c1ccc(F)c(F)c1 [Compound 4] | < 10 | < 10 |
| O=C(/N=C(/Nc1cccc(Cl)c1)N[C@H]1CC[C@H](O)CC1)c1ccc(F)c(F)c1 [Compound 5] | < 10 | > 10 |
| O=C(/N=C(/Nc1cc(F)cc(Cl)c1)N[C@H]1CC[C@H](O)CC1)c1ccc(F)c(F)c1 [Compound 6] | < 10 | < 10 |
| O=C(/N=C(/Nc1cc(F)cc(Cl)c1)N[C@H]1CC[C@H](O)CC1)c1ccc(C(F)(F)F)cc1 [Compound 7] | < 10 | < 10 |
| O=C(/N=C(/Nc1cccc(Cl)c1)N[C@H]1CC[C@H](O)CC1)c1ccc(C(F)(F)F)cc1 [Compound 8] | < 10 | < 10 |
| O=C(/N=C(/Nc1cc(F)cc(Cl)c1)N[C@H]1CC[C@H](Nc2ncccn2)CC1)c1ccc(F)c(F)c1 [Compound 9] | < 10 | < 10 |
| CCOC(=O)N[C@H]1CC[C@H](N/C(=N/C(=O)c2ccc(F)c(F)c2)Nc2cc(F)cc(Cl)c2)CC1 [Compound 10] | < 10 | < 10 |
| COC(=O)N[C@H]1CC[C@H](N/C(=N/C(=O)c2ccc(F)c(F)c2)Nc2cc(F)cc(Cl)c2)CC1 [Compound 11] | < 10 | < 10 |
| N[C@H]1CC[C@H](N/C(=N/C(=O)c2ccc(F)c(F)c2)Nc2cc(F)cc(Cl)c2)CC1 [Compound 12] | < 10 | > 10 |
| N[C@H]1CC[C@H](N/C(=N/C(=O)c2ccc(F)c(F)c2)Nc2cccc(C(F)(F)F)c2)CC1 [Compound 13] | < 10 | > 10 |
| CCOC(=O)N[C@H]1CC[C@H](N/C(=N/C(=O)c2ccc(F)c(F)c2)Nc2cccc(C(F)(F)F)c2)CC1 [Compound 14] | < 10 | < 10 |
| COC(=O)N[C@H]1CC[C@H](N/C(=N/C(=O)c2ccc(F)c(F)c2)Nc2cccc(C(F)(F)F)c2)CC1 [Compound 15] | < 10 | < 10 |
| O=C(/N=C(\NCc1ccccc1C(F)(F)F)N[C@H]1CC[C@H](O)CC1)c1ccc(F)c(F)c1 [Compound 16] | < 10 | > 10 |
| O=C(/N=C(/NCc1ccccc1C(F)(F)F)N[C@H]1CC[C@H](O)CC1)c1ccc(C(F)(F)F)cc1 [Compound 17] | < 10 | < 10 |
| CCOC(=O)N[C@H]1CC[C@H](N/C(=N\C(=O)c2ccc(C(F)(F)F)cc2)Nc2cccc(Cl)c2)CC1 [Compound 18] | < 10 | < 10 |
| CCOC(=O)N[C@H]1CC[C@H](N/C(=N/C(=O)c2ccc(F)c(F)c2)Nc2cccc(Cl)c2)CC1 [Compound 19] | < 10 | < 10 |
| O=C(/N=C(/Nc1cccc(Cl)c1)N[C@H]1CC[C@H](Nc2ncccn2)CC1)c1ccc(F)c(F)c1 [Compound 20] | < 10 | < 10 |

| SMILES | EC50 (Ramos cells) [µM] | IC50 (F1F0-ATPase) [µM] |
| --- | --- | --- |
| O=C(/N=C(/Nc1ccccc1C1CC1)N[C@H]1CC[C@H](O)CC1)c1ccc(C(F)(F)F)cc1 [Compound 21] | < 10 | < 10 |
| O=C(/N=C(/Nc1ccccc1C1CC1)N[C@H]1CC[C@H](O)CC1)c1ccc(Cl)cc1 [Compound 22] | > 10 | > 10 |
| O=C(/N=C(/Nc1ccccc1C1CC1)N[C@H]1CC[C@H](O)CC1)c1ccc(F)c(F)c1 [Compound 23] | > 10 | > 10 |
| O=C(/N=C(/Nc1cccc(C(F)(F)F)c1)N[C@H]1CC[C@H](O)CC1)c1cccc(Cl)c1 [Compound 24] | < 10 | < 10 |
| O=C(/N=C(/Nc1cccc(Cl)c1)N[C@H]1CC[C@H](O)CC1)c1cccc(Cl)c1 [Compound 25] | < 10 | > 10 |
| O=C(/N=C(/Nc1cc(F)cc(Cl)c1)NC1CCC(O)CC1)c1cccc(Cl)c1 (stereo not shown) [Compound 26] | < 10 | – |
| O=C(/N=C(/Nc1cc(F)cc(Cl)c1)N[C@H]1CC[C@H](O)CC1)c1cccc(Cl)c1 [Compound 26] | – | < 10 |
| O=C(/N=C(/Nc1cccc(Cl)c1)N[C@H]1CC[C@H](O)CC1)c1ccc(Cl)cc1 [Compound 27] | < 10 | > 10 |
| O=C(/N=C(/Nc1cc(F)cc(Cl)c1)N[C@H]1CC[C@H](O)CC1)c1ccc(Cl)cc1 [Compound 28] | < 10 | > 10 |
| O=C(/N=C(/Nc1cccc(C(F)(F)F)c1)N[C@H]1CC[C@H](O)CC1)c1ccc(Cl)cc1 [Compound 29] | < 10 | < 10 |
| O=C(/N=C(/Nc1cccc(C(F)(F)F)c1)N[C@H]1CC[C@H](O)CC1)c1cccc(C(F)(F)F)c1 [Compound 30] | < 10 | < 10 |
| O=C(/N=C(/NCc1ccc(Cl)cc1)N[C@H]1CC[C@H](O)CC1)c1ccc(F)c(F)c1 [Compound 31] | > 10 | > 10 |
| O=C(/N=C(/NCc1ccccc1C(F)(F)F)N[C@H]1CC[C@H](O)CC1)c1ccc(F)c(F)c1 [Compound 32] | > 10 | – |
| O=C(/N=C(/NCc1cccc(C(F)(F)F)c1)N[C@H]1CC[C@H](O)CC1)c1ccc(F)c(F)c1 [Compound 33] | < 10 | > 10 |
| O=C(/N=C(/NCc1ccc(C(F)(F)F)cc1)N[C@H]1CC[C@H](O)CC1)c1ccc(F)c(F)c1 [Compound 34] | < 10 | > 10 |
| O=C(/N=C(/NCc1ccccc1F)N[C@H]1CC[C@H](O)CC1)c1ccc(F)c(F)c1 [Compound 35] | > 10 | > 10 |
| O=C(/N=C(/NCc1cccc(F)c1)N[C@H]1CC[C@H](O)CC1)c1ccc(F)c(F)c1 [Compound 36] | > 10 | > 10 |
| O=C(/N=C(/NCc1ccc(F)cc1)N[C@H]1CC[C@H](O)CC1)c1ccc(F)c(F)c1 [Compound 37] | > 10 | > 10 |
| O=C(/N=C(/NCc1cc(F)ccc1F)N[C@H]1CC[C@H](O)CC1)c1ccc(F)c(F)c1 [Compound 38] | > 10 | > 10 |
| O=C(/N=C(/NCc1ccc(F)c(F)c1)N[C@H]1CC[C@H](O)CC1)c1ccc(F)c(F)c1 [Compound 39] | < 10 | > 10 |

| SMILES | EC50 (Ramos cells) [µM] | IC50 (F1F0-ATPase) [µM] |
| --- | --- | --- |
| O=C(/N=C(/NCc1cccc(F)c1F)N[C@H]1CC[C@H](O)CC1)c1ccc(F)c(F)c1 [Compound 40] | > 10 | > 10 |
| O=C(/N=C(/NCc1ccc(F)cc1F)N[C@H]1CC[C@H](O)CC1)c1ccc(F)c(F)c1 [Compound 41] | > 10 | > 10 |
| O=C(/N=C(/NCc1cc(F)cc(F)c1)N[C@H]1CC[C@H](O)CC1)c1ccc(F)c(F)c1 [Compound 42] | > 10 | > 10 |
| O=C(/N=C(/NCc1ccc(F)cc1Cl)N[C@H]1CC[C@H](O)CC1)c1ccc(F)c(F)c1 [Compound 43] | > 10 | > 10 |
| O=C(/N=C(/NCc1ccc(F)c(Cl)c1)N[C@H]1CC[C@H](O)CC1)c1ccc(F)c(F)c1 [Compound 44] | < 10 | > 10 |
| O=C(/N=C(/NCc1ccc(Cl)c(F)c1)N[C@H]1CC[C@H](O)CC1)c1ccc(F)c(F)c1 [Compound 45] | < 10 | < 10 |
| O=C(/N=C(/NCc1ccc(Cl)cc1F)N[C@H]1CC[C@H](O)CC1)c1ccc(F)c(F)c1 [Compound 46] | < 10 | > 10 |
| CCOC(=O)N[C@H]1CC[C@H](N/C(=N\C(=O)c2ccc(F)c(F)c2)NCc2ccccc2Cl)CC1 [Compound 47] | < 10 | < 10 |
| CCOC(=O)N[C@H]1CC[C@H](N/C(=N\C(=O)c2ccc(F)c(F)c2)NCc2cccc(Cl)c2)CC1 [Compound 48] | < 10 | < 10 |
| CCOC(=O)N[C@H]1CC[C@H](N/C(=N\C(=O)c2ccc(F)c(F)c2)NCc2ccc(Cl)cc2)CC1 [Compound 49] | < 10 | < 10 |
| CCOC(=O)N[C@H]1CC[C@H](N/C(=N\C(=O)c2ccc(F)c(F)c2)NCc2ccccc2C(F)(F)F)CC1 [Compound 50] | < 10 | < 10 |
| CCOC(=O)N[C@H]1CC[C@H](N/C(=N\C(=O)c2ccc(F)c(F)c2)NCc2cccc(C(F)(F)F)c2)CC1 [Compound 51] | < 10 | < 10 |
| CCOC(=O)N[C@H]1CC[C@H](N/C(=N\C(=O)c2ccc(F)c(F)c2)NCc2ccc(C(F)(F)F)cc2)CC1 [Compound 52] | < 10 | < 10 |
| CCOC(=O)N[C@H]1CC[C@H](N/C(=N\C(=O)c2ccc(F)c(F)c2)NCc2ccccc2F)CC1 [Compound 53] | < 10 | < 10 |
| CCOC(=O)N[C@H]1CC[C@H](N/C(=N\C(=O)c2ccc(F)c(F)c2)NCc2cccc(F)c2)CC1 [Compound 54] | < 10 | < 10 |
| CCOC(=O)N[C@H]1CC[C@H](N/C(=N\C(=O)c2ccc(F)c(F)c2)NCc2cc(F)ccc2F)CC1 [Compound 55] | < 10 | < 10 |
| CCOC(=O)N[C@H]1CC[C@H](N/C(=N\C(=O)c2ccc(F)c(F)c2)NCc2ccc(F)c(F)c2)CC1 [Compound 56] | < 10 | < 10 |
| CCOC(=O)N[C@H]1CC[C@H](N/C(=N\C(=O)c2ccc(F)c(F)c2)NCc2cccc(F)c2F)CC1 [Compound 57] | < 10 | < 10 |
| CCOC(=O)N[C@H]1CC[C@H](N/C(=N/C(=O)c2ccc(F)c(F)c2)NC2CCCC2)CC1 [Compound 70] | > 10 | – |
| O=C(/N=C(/Nc1cc(F)cc(Cl)c1)N[C@H]1CCCC[C@@H]1O)c1ccc(C(F)(F)F)cc1 [Compound 127] | < 10 | – |
